pIC50: −log10 of the molar value. Read-outs that look alike come from different tables or passages of the source.
Experiments:
CEM cells = assay: Cytotoxicity in growing CEM cells, microscopic inspection; assay type: cell-based
Description: (§1) Cells and viruses. The routine growth and passage of KB cells was performed in monolayer cultures using minimal essential medium (MEM) with either Hanks salts [MEM(H)] or Earle salts [MEM(E)] supplemented with 10% calf serum. The sodium bicarbonate concentration was varied to meet the buffering capacity required. Cultures of diploid human foreskin fibroblasts (HFF) or MRC-5 cells were grown in medium consisting of MEM(E) with 10% fetal bovine serum. Cells were passaged at 1:2 to 1:10 dilutions according to conventional procedures by using 0.05% trypsin plus 0.02% EDTA in a HEPES buffered salt solution (HBS) (Shipman, C., Jr., Proc. Soc. Exp. Biol. 130:305-310 (1969)) as described previously. Turk, S. R., et al., Antimicrob. Agents Chemother. 31:544-550 (1987). HFF and MRC-5 cells were passaged only at 1:2 dilutions. CEM cells were maintained in suspension culture as detailed previously. Kucera, L. S., et al., AIDS Res. Human Retroviruses 9:307-314 (1993).
(§2) Cytotoxicity assays. Two different assays were used to explore cytotoxicity of selected compounds as we have detailed previously. (i) Cytotoxicity produced in stationary HFF cells and in growing CEM cells was determined by microscopic inspection of cells used in plaque and RT assays which were not affected by the virus. Turk, S. R., et al., Antimicrob. Agents Chemother. 31:544-550 (1987). (ii) The effect of compounds during two population doublings of KB cells was determined by crystal violet staining and spectrophotometric quantitation of dye eluted from stained cells. Prichard, M. N., et al., Antimicrob. Agents Chemother. 35:1060-1065 (1991).
(§3) Data Analysis. Dose-response relationships were constructed by linearly regressing the percent inhibition of parameters derived in the preceding sections against log drug concentrations. Fifty-percent inhibitory (IC50) concentrations were calculated from the regression lines. Samples containing positive controls (acyclovir for HSV-1, ganciclovir for HCMV, and 2-acetylpyridine thiosemicarbazone for cytotoxicity) were used in all assays.

KB cells = assay: Cytotoxicity in KB cells, growth over two population doublings; assay type: cell-based
Description: as §1, §2, §3

HCMV = HCMV plaque reduction assay in HFF cells; assay type: cell-based, Human CMV (HCMV); conditions: HFF cells, plaque reduction
Description: as §1
(§4) Virological procedures. Stock HCMV was prepared by infecting HFF cells at a multiplicity of infection (m.o.i.) of <0.01 plaque-forming units (p.f.u.) per cell. Cell growth medium was changed every four days until cytopathology was evident in all cells (approximately 21 days). Supernatant fluids were retained as the virus stock. High titer HSV-1 stocks were prepared by infecting KB cells at an m.o.i. of <0.1 as detailed previously. Turk, S. R., et al., Antimicrob. Agents Chemother. 31:544-550 (1987). Virus titers were determined using monolayer cultures of HFF cells for HCMV and monolayer cultures of BSC-1 cells for HSV-1 as described earlier. Prichard, M. N., et al., J. Virol. Methods 28:101-106 (1990). Briefly, HFF or BSC-1 cells were planted as described above in 96-well cluster dishes and incubated overnight at 37° C. in a humidified 3% CO297% air atmosphere. The next day cultures were inoculated with HCMV or HSV-1 and serially diluted 1:3 across the remaining eleven columns of the 96-well plate. Cultures were incubated at 37° C. for 2 hr to permit virus adsorption and then virus inoculum was replaced with 0.2 mL of fresh medium. Cultures were incubated for seven days for HCMV, two or three days for HSV-1, medium was removed, and the cell sheets were stained with 0.1% crystal violet in 20% methanol. Plaques were enumerated under 20-fold magnification in wells having the dilution which gave 5 to 20 plaques per well. Virus titers were calculated according to the following Formula: Titer (p.f.u./mL)=number of plaques×5×3^n; where n represents the nth dilution of the virus used to infect the well in which plaques were enumerated.
(a) HCMV. The effect of compounds on the replication of HCMV has been measured using a plaque reduction assay. HFF cells in 24-well cluster dishes were infected with approximately 100 p.f.u. of HCMV per cm^2 cell sheet using the procedures detailed above. Following virus adsorption, compounds dissolved in growth medium were added to duplicate wells in three to six selected concentrations. Following incubation at 37° C. for 7 to 10 days, cell sheets were fixed, stained with crystal violet and microscopic plaques enumerated as described above. Drug effects were calculated as a percentage of reduction in number of plaques in the presence of each drug concentration compared to the number observed in the absence of drug. Ganciclovir (DHPG) was used as a positive control in all experiments.
as §3

HIV-1 = HIV-1 reverse transcriptase assay in infected CEM cells; assay type: cell-based, strain IIIB of HIV-1
Description: (d) HIV-1. Reverse transcriptase (RT) was employed as a marker for HIV-1. This assay measured the presence of HIV in supernatants of CEM cells infected with strain IIIB of HIV-1 by the amount of RT activity. Cells were grown, infected, and incubated in the presence of seven concentrations (one-half log10 dilutions) beginning at 1 or 100 μM of compounds to be assayed. Procedures and the RT assay were performed as detailed previously. Kucera, L. S., et al., AIDS Res. Human Retroviruses 9:307-314 (1993); White, E. L., et al., Antiviral Res. 16:257-266 (1991).

HSV-1 = HSV-1 ELISA in BSC-1 cells; assay type: cell-based, herpes simplex 1 (HSV-1); conditions: ELISA
Description: as §4
(b) HSV-1. An enzyme-linked immunosorbent assay (ELISA) was employed to detect HSV-1. 96-well cluster dishes were planted with BSC-1 cells at 10,000 cells per well, in a total volume of 200 μL per well of MEM(E) plus 10% calf serum. After overnight incubation at 37° C., drug and HSV-1 was added at the rate of 100 PFU/well. ELISA plates were blocked with 200 μL per well of 10% calf serum and 0.05% tween in HBS. After incubation for 30 minutes, the blocking agent was rinsed two times with HBS-T. A 1:400 dilution of AP conjugated rabbit anti-HSV-1 antibody in HBS-F was added. Plates were sealed with adhesive sheet, and incubated on rocker for one hour at 37° C. Plates were developed in the dark with 100 μL per well of substrate solution containing p-nitrophenyl phosphate. Plates were read at […]. Drug effects were calculated as a percentage of the reduction in virus in the presence of each drug concentration compared to the titer obtained in the absence of drug. Acyclovir was used as a positive control in all experiments.
as §3

HFF cells = assay: Cytotoxicity in stationary HFF cells, microscopic inspection; assay type: cell-based, human
Description: as §1, §2, §3

[1] = Example 26, listed as R-1 (B = 2-amino-6-methoxy-purine), Example 22
[2] = Example 26, listed as S-1 (B = 2-amino-6-methoxy-purine), Example 22
[3] = KB cell growth, read-out: Cytotoxicity IC50 KB (growth)
[4] = reverse transcriptase assay, CEM cells, low moi (footnote c of the 5th table), read-out: HIV-1, IC50
[5] = Example 26, high multiplicity of infection (moi), read-out: HIV-1 IC50, reverse transcriptase assay

COc1nc(N)nc2c1ncn2C=C1CC1CO (stereo not shown) [listing 1 of 2 here]
pIC50 (CEM cells): < 4.00
pIC50 (KB cells): < 4.00
pIC50 (HCMV; [1]): < 4.00
pIC50 (HIV-1; Example 26, high multiplicity of infection (moi), listed as R-1 (B = 2-amino-6-methoxy-purine), Example 22, read-out: HIV-1 IC50, reverse transcriptase assay): < 4.00
pIC50 (HSV-1; [1]): < 4.00
pIC50 (HFF cells): < 4.00

COc1nc(N)nc2c1ncn2C=C1CC1CO (stereo not shown) [listing 2 of 2 here]
pIC50 (HCMV; [2]): 5.60
pIC50 (HIV-1; Example 26, high multiplicity of infection (moi), listed as S-1 (B = 2-amino-6-methoxy-purine), Example 22, read-out: HIV-1 IC50, reverse transcriptase assay): 4.38
pIC50 (HSV-1; [2]): 4.70

COC(=O)[C@H](C)NP(=O)(OCC1CC1=Cn1cnc2c(N)nc(N)nc21)Oc1ccccc1 (stereo partly drawn) [3 (B = 2,6-diaminopurine), Example 15, Methyl Phenylphosphoro-L-alaninate of syn-2,6-diamino-N^9-(2-Hydroxycyclopropylidene-methyl)purine]
pIC50 (KB cells; [3]): 4.40
pIC50 (HCMV): 5.40
pIC50 (HIV-1; [4]): 6.59
pIC50 (HSV-1; BSC-1 cells): 4.30
pIC50 (HFF cells; stationary HFF cells, visual, read-out: Cytotoxicity IC50 HFF (visual)): < 4.00

COC(=O)[C@H](C)NP(=O)(OCC1CC1=Cn1cnc2c(N)ncnc21)Oc1ccccc1 (stereo partly drawn) [4 (B = adenine), Example 14, Methyl Phenylphosphoro-L-alaninate of anti-N^9-(2-Hydroxymethylcyclopropylidenemethyl)adenine]
pIC50 (CEM cells; growing CEM cells, visual, read-out: Cytotoxicity IC50 CEM (visual)): 4.18
pIC50 (KB cells; [3]): 4.30
pIC50 (HCMV): 4.68
pIC50 (HIV-1; [4]): 5.80
pIC50 (HSV-1; BSC-1 cells): 4.19

Nc1nc(N)c2ncn(C=C3CC3CO)c2n1 (stereo not shown) [R-1 (B = 2,6-diaminopurine), Example 22]
pIC50 (CEM cells): < 4.00
pIC50 (KB cells): < 4.00
pIC50 (HCMV; Example 26): < 4.00
pIC50 (HIV-1; [5]): < 4.00
pIC50 (HSV-1; Example 26): < 4.00
pIC50 (HFF cells): < 4.00

Nc1nc(Cl)c2ncn(C=C3CC3CO)c2n1 (stereo not shown) [R-1 (B = 2-amino-6-chloropurine), Example 22]
pIC50 (CEM cells): < 4.00
pIC50 (KB cells): < 4.00
pIC50 (HCMV; Example 26): 4.52
pIC50 (HIV-1; [5]): < 4.00
pIC50 (HSV-1; Example 26): < 4.00
pIC50 (HFF cells): 4.49

Nc1nc(NC2CC2)c2ncn(C=C3CC3CO)c2n1 (stereo not shown) [R-1 (B = 2-aminopurine-6-cyclo-propylaminopurine), Example 2]
pIC50 (CEM cells): < 4.00
pIC50 (KB cells): < 4.00
pIC50 (HCMV; Example 26): < 4.00
pIC50 (HIV-1; [5]): < 4.00
pIC50 (HSV-1; Example 26): < 4.00
pIC50 (HFF cells): < 4.00

Nc1ncnc2c1ncn2/C=C1/C[C@H]1CO [R-1 (B = adenine), Example 23, (R)-(−)-Synadenol]
pIC50 (CEM cells): < 4.00
pIC50 (KB cells): < 4.00
pIC50 (HCMV; Example 26): 5.54
pIC50 (HIV-1; [5]): 5.15
pIC50 (HSV-1; Example 26): 4.42
pIC50 (HFF cells): < 4.00

Reference: US6958345B2, “2-hydroxymethylcyclopropylidene methylpurines and -pyrimidines as antiviral agents” (The Regents of the University of Michigan, priority 1997, dated 2005)
